The values that follow come from patent publication US12679878B2, “CRF2 receptor agonists and their use in therapy” (SANOFI, priority 2020, dated 2026).

Read-outs that look alike come from different tables or passages of the source. Starred links: 1 amine or outer side, 2 acyl side, 3 side chain; linkers in the order of their positions; H or OH if unused. Non-standard residues stand in square brackets, D forms with d. Residues, ends and D or L forms follow the SMILES beside them. Groups on a side chain read outwards from the residue. *: point of attachment. C18 diacid = O=C(O)CCCCCCCCCCCCCCCCC(=O)*; γGlu = O=C(O)[C@H](CCC(=O)[*:2])N[*:1]; Palmitoyl = CCCCCCCCCCCCCCCC(=O)*; AEEA = NCCOCCOCC(=O)O; Aib = CC(C)(N)C(=O)O

Assay type in all cases: cell-based
For one assay, the target named is T1, human CRF2α receptor (Homo sapiens, UniProt Q13324).
T1 construct: expressed in transfected cells; host or cells: TeloHEAC
T1 sequence (Q13324 1-411): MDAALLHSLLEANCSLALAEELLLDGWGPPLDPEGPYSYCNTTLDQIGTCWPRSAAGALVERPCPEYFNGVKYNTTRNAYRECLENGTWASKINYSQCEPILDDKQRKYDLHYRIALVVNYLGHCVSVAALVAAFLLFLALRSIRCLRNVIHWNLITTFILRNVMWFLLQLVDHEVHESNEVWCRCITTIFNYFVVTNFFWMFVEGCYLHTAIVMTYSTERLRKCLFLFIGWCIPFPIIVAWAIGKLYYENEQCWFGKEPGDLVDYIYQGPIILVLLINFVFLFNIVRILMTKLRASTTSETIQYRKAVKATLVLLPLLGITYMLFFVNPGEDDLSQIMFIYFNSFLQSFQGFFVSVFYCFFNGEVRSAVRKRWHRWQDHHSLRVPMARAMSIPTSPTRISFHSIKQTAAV
Put plainly: cAMP agonism at human CRF2 α receptor in TeloHEAC cells (Example 7). The settings on record: cAMP HTRF, TeloHEAC cells stably expressing human CRF2 α. In a few lines: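 Percent activation was referenced to 1000 nM UCN2 (100%), and EC50 values taken as concentrations giving half of maximal response. The read-out was a homogeneous time-resolved fluorescence cAMP kit, fluorescence ratio 665/620 nm. Thawed cells (2000/well) saw compound for 30 min at RT in buffer with 2 mM IBMX and 0%/0.1% HSA.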
For orientation: In TR-FRET formats the signal depends on donor and acceptor labels being close together.

The next assay deals with T2, CRF1R receptor (Homo sapiens, UniProt P34998).
T2 construct: host or cells: CHO-K1 clone 2
T2 sequence (P34998 24-415): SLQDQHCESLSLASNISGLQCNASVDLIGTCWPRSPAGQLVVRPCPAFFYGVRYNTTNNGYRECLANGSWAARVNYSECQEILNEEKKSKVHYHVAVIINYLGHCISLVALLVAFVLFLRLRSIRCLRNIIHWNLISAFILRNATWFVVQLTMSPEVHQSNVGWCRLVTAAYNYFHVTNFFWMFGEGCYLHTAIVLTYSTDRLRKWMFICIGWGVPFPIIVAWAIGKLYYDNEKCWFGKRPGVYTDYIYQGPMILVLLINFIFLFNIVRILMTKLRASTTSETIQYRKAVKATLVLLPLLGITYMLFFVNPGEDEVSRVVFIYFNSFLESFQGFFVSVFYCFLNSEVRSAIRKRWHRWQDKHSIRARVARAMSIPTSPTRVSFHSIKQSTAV
Nature of the assay: cAMP activity at anti-target CRF1R, CRF1R-overexpression CHO cell line (Example 9). The settings on record: for EC50: 0% HSA. In a few lines:
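cAMP accumulation was read by HTRF after 30 min at room temperature of compound treatment. Cells were cryopreserved CHO cells overexpressing CRF1R, plated at 2000/well in IBMX (2 mM)-containing HBSS/HEPES buffer with 0 or 0.1% HSA. Activity was normalized to 1000 nM UCN2 as 100%.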

The test system of the next assay is rat CRF2R α receptor. Nature of the assay: cAMP agonism at rat CRF2R α receptor in A7R5 rat aortic smooth muscle cells (Example 8). The note with it: cAMP HTRF, A7R5 rat aortic smooth muscle cell line, 0% HSA. The method, boiled down: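 Thawed cryopreserved A7R5 cells in HBSS/20 mM HEPES (0 or 0.1% HSA) with 2 mM IBMX, 2000 cells/well, were exposed to compound for 30 min at room temperature. cAMP was read by HTRF (665/620 nm ratio) after 1 h with lysis reagents. Activity was normalised to 1000 nM urocortin 2 as 100%, and EC50 was taken as the concentration giving 50% of maximal activation.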

Where [1] appears, read: 0% HSA, read-out: EC50 [nM], 0% HSA.
The mark [2] stands for this setting: 0.1% HSA, read-out: EC50 [nM], 0.1% HSA.
Setting [3] is: CRF1R-overexpression CHO cell line.
[4] abbreviates: CRF1R-overexpression CHO cell line, read-out: Emax (%).

Regarding `CC[C@H](C)[C@H](NC(=O)[C@H](CCC(N)=O)NC(=O)[C@H](CCC(=O)O)NC(=O)[C@H](CC(C)C)NC(=O)[C@H](CC(C)C)NC(=O)[C@H](CCC(N)=O)NC(=O)[C@H](CCCCN)NC(=O)[C@H](CC(N)=O)NC(=O)[C@H](CCCCN)NC(=O)[C@H](CCC(=O)O)NC(=O)[C@H](C)NC(=O)[C@H](CCC(N)=O)NC(=O)[C@H](CCC(N)=O)NC(=O)[C@H](CCCNC(=N)N)NC(=O)[C@H](CCC(=O)O)NC(=O)[C@H](CCCCN)NC(=O)[C@H](CCCCN)NC(=O)[C@H](CCC(N)=O)NC(=O)[C@H](CCCCN)NC(=O)[C@H](CCC(N)=O)NC(=O)[C@H](CCC(N)=O)NC(=O)[C@H](CCCCN)NC(=O)[C@H](Cc1ccccc1)NC(=O)[C@H](CC(C)C)NC(=O)[C@@H](NC(=O)[C@H](CCC(N)=O)NC(=O)[C@H](CCCCNC(=O)COCCOCCNC(=O)COCCOCCNC(=O)CC[C@H](NC(=O)CCCCCCCCCCCCCCCCC(=O)O)C(=O)O)NC(=O)[C@@H](NC(=O)[C@H](CCCCN)NC(=O)[C@@H](NC(=O)[C@@H]1CCCN1C(=O)[C@@H](NC(=O)[C@H](CC(=O)O)NC(=O)[C@H](CC(C)C)NC(=O)[C@H](CO)NC(=O)[C@H](CC(C)C)NC(=O)[C@@H](NC(=O)[C@@H](N)Cc1ccccc1)[C@@H](C)O)C(C)C)[C@@H](C)O)[C@@H](C)CC)[C@@H](C)CC)C(N)=O` [compound 13] (H-FTLSLDVPTKIK([AEEA-AEEA-γGlu-C18 diacid])QILFKQQKQKKERQQAEKNKQLLEQI-NH2; N-terminus assumed), the figures for the EC50 on human CRF2α receptor (setting [1]), on human CRF2α receptor (setting [2]) and in the assay with rat CRF2R α receptor were 0.98 nM, 64.1 nM and 2.5 nM, respectively. On CRF1R receptor (CHO), this compound yielded an Emax of 4.3%.

For the compound `CCCCCCCCCCCCCCCC(=O)N[C@@H](CCC(=O)NCCCC[C@H](NC(=O)[C@@H](NC(=O)[C@H](CCCCN)NC(=O)[C@@H](NC(=O)[C@@H]1CCCN1C(=O)[C@@H](NC(=O)[C@H](CC(=O)O)NC(=O)[C@H](CC(C)C)NC(=O)[C@H](CO)NC(=O)[C@H](CC(C)C)NC(=O)[C@@H](NC(=O)[C@@H](N)Cc1ccccc1)[C@@H](C)O)C(C)C)[C@@H](C)O)[C@@H](C)CC)C(=O)N[C@@H](CCC(N)=O)C(=O)N[C@@H](CCCCN)C(=O)N[C@@H](CC(C)C)C(=O)N[C@@H](Cc1ccccc1)C(=O)N[C@@H](CCCCN)C(=O)N[C@@H](CCC(N)=O)C(=O)N[C@@H](C)C(=O)N[C@@H](CCCCN)C(=O)N[C@@H](CCC(N)=O)C(=O)N[C@@H](CCCCN)C(=O)N[C@@H](CCCCN)C(=O)N[C@@H](CCC(N)=O)C(=O)N[C@@H](CCCNC(=N)N)C(=O)N[C@@H](CCC(N)=O)C(=O)N[C@@H](CCCCN)C(=O)N[C@@H](C)C(=O)N[C@@H](CCCCN)C(=O)N[C@H](C(=O)N[C@@H](CC(N)=O)C(=O)N[C@@H](C)C(=O)N[C@@H](CCC(N)=O)C(=O)N[C@H](C(=O)N[C@@H](CC(C)C)C(=O)N[C@@H](C)C(=O)N[C@@H](CCCNC(=N)N)C(=O)N[C@H](C(N)=O)C(C)C)[C@@H](C)CC)[C@@H](C)O)C(=O)O` [compound 15] (H-FTLSLDVPTKIK([γGlu-Palmitoyl])QKLFKQAKQKKQRQKAKTNAQILARV-NH2; N-terminus assumed), the EC50 at human CRF2α receptor (setting [1]) is 0.88 nM; at CRF1R receptor (setting [3]) it was above 1000 nM; with rat CRF2R α receptor, 1.38 nM. In addition, the Emax on CRF1R receptor (setting [4]) was determined as 7.75%.

For `CC[C@H](C)[C@H](N)C(=O)N[C@H](C(=O)N[C@@H](CC(C)C)C(=O)N[C@@H](CO)C(=O)N[C@@H](CC(C)C)C(=O)N[C@@H](CC(=O)O)C(=O)N[C@H](C(=O)N1CCC[C@H]1C(=O)N[C@H](C(=O)N[C@@H](CCCCN)C(=O)N[C@@H](CC(C)C)C(=O)N[C@@H](CCCCNC(=O)COCCOCCNC(=O)COCCOCCNC(=O)CC[C@H](NC(=O)CCCCCCCCCCCCCCCCC(=O)O)C(=O)O)C(=O)N[C@@H](CCC(N)=O)C(=O)N[C@H](C(=O)N[C@@H](CC(C)C)C(=O)N[C@@H](CC(C)C)C(=O)N[C@@H](CCC(=O)O)C(=O)N[C@@H](CCC(N)=O)C(=O)N[C@@H](C)C(=O)N[C@@H](CCCCN)C(=O)N[C@@H](CCC(N)=O)C(=O)N[C@@H](CCCCN)C(=O)NC(C)(C)C(=O)N[C@@H](CC(C)C)C(=O)N[C@@H](CCCNC(=N)N)C(=O)N[C@@H](C)C(=O)N[C@@H](CCC(N)=O)C(=O)N[C@@H](C)C(=O)N[C@@H](CCC(=O)O)C(=O)N[C@H](C(=O)N[C@@H](CC(N)=O)C(=O)N[C@H](C(=O)N[C@@H](CCCNC(=N)N)C(=O)N[C@H](C(=O)N[C@@H](CC(C)C)C(=O)N[C@@H](CCC(=O)O)C(=O)N[C@@H](CCCNC(=N)N)C(=O)N[C@H](C(N)=O)C(C)C)[C@@H](C)CC)C(C)C)[C@@H](C)O)[C@@H](C)CC)[C@@H](C)CC)C(C)C)C(C)C` [compound 46] (H-IVLSLDVPIKLK([AEEA-AEEA-γGlu-C18 diacid])QILLEQAKQK[Aib]LRAQAETNVRILERV-NH2; N-terminus assumed), the EC50 on human CRF2α receptor (setting [1]) is 0.52 nM; on CRF1R receptor (setting [3]), above 1000 nM; in the assay with rat CRF2R α receptor, 8.97 nM. The Emax on CRF1R receptor (setting [4]) stood at 5.88%.

As to `CC[C@H](C)[C@H](NC(=O)[C@H](CCC(N)=O)NC(=O)[C@H](CCCCNC(=O)COCCOCCNC(=O)COCCOCCNC(=O)CC[C@H](NC(=O)CCCCCCCCCCCCCCCCC(=O)O)C(=O)O)NC(=O)[C@@H](NC(=O)[C@H](CCCCN)NC(=O)[C@@H](NC(=O)[C@@H]1CCCN1C(=O)[C@@H](NC(=O)[C@H](CC(=O)O)NC(=O)[C@H](CC(C)C)NC(=O)[C@H](CO)NC(=O)[C@H](CC(C)C)NC(=O)[C@@H](NC(=O)[C@@H](N)Cc1ccccc1)[C@@H](C)O)C(C)C)[C@@H](C)O)[C@@H](C)CC)C(=O)N[C@@H](CC(C)C)C(=O)N[C@@H](CC(C)C)C(=O)N[C@@H](CCCCN)C(=O)N[C@@H](CCC(N)=O)C(=O)N[C@@H](CCC(N)=O)C(=O)N[C@@H](CCCCN)C(=O)N[C@@H](CCC(N)=O)C(=O)N[C@@H](CCCCN)C(=O)N[C@@H](CCCCN)C(=O)N[C@@H](CCC(=O)O)C(=O)N[C@@H](CCCNC(=N)N)C(=O)N[C@@H](CCC(N)=O)C(=O)N[C@@H](CCC(N)=O)C(=O)N[C@@H](C)C(=O)N[C@@H](CCC(=O)O)C(=O)N[C@@H](CCCCN)C(=O)N[C@@H](CC(N)=O)C(=O)N[C@@H](CCCCN)C(=O)N[C@@H](CCC(N)=O)C(=O)N[C@@H](CC(C)C)C(=O)N[C@@H](CC(C)C)C(=O)N[C@@H](CCC(=O)O)C(=O)N[C@@H](CCCNC(=N)N)C(=O)N[C@H](C(N)=O)C(C)C` [compound 52] (H-FTLSLDVPTKIK([AEEA-AEEA-γGlu-C18 diacid])QILLKQQKQKKERQQAEKNKQLLERV-NH2; N-terminus assumed), the concentration for a half-maximal effect (EC50) is 0.7 nM on human CRF2α receptor (setting [1]), 45.8 nM at human CRF2α receptor (setting [2]), above 1000 nM at CRF1R receptor (setting [3]) and 0.76 nM in the assay on rat CRF2R α receptor. On CRF1R receptor (setting [4]), the Emax stood at 5.3%.

Broadly, the EC50 is the midpoint of the concentration-response curve. Broadly, the Emax is the greatest response seen or fitted, relative to the assay's reference.
